# Results taken from publication PMC11157767 (Molecular Cancer, 2024).
# Several values for one entry are separate records, joined by “and”; a condition that tells them apart may be missing. Equal values may be shown once. Read-outs that look alike come from different tables or passages of the source.
# Experiments:
# [1] = tested on: TRIM24-MET-i PDOX; assay: TRIM24-MET-i PDOX 4-arm trial capmatinib +/- RT (survival, BLI, body weight); type: in vivo, mouse
# Experimental: (§1) All treatments started 18 days after transplantation. Radiotherapy was administered at 0.5 Gy per day, delivering 10 Gy total.
# Treatment started on day 13.
# [2] = tested on: cells isolated from murine tumors induced by overexpressing TFG-MET alone; settings: without Trp53 knockout
# [3] = tested on: TRIM24-MET-i PDOX; settings: for BLI signal, individual mice: PDX trial cap vs cabo
# Experimental: as §1
# Each line represents one mouse. The ends of lines indicate the onset of neurological symptoms and thereby the endpoints. Treatment started on day 13.
# [4] = In vitro protein binding assay, naive mouse brain tissue homogenate
# [5] = tested on: Kap1 pS824; assay: Western blot of phosphorylated Kap1 (pS824) in TFG-MET allograft tumors; type: in vivo, mouse; settings: capmatinib and RT
# Experimental: (§2) Error bars display standard error of mean, statistical significance was determined using t-test analysis. (****;p<0.0001, ***;p<0.001, **;p<0.01, *;p<0.05). […] Each dot represents an individual replicate. Error bars display standard error of the mean. Statistical significance was determined using a One-Way ANOVA followed by Tukey’s multiple comparisons test (*p<0.05, **p<0.01, ***p<0.001, ****p<0.0001).
# [6] = tested on: TRIM24-MET L97 human glioma cell lines; assay: γH2AX immunofluorescence after 4 Gy irradiation, TRIM24-MET human glioma cells; type: cell-based; settings: 1, 2, 3 and 4 hours following 4 Gy irradiation
# Experimental: as §2
# [7] = In vitro protein binding assay, mouse plasma
# [8] = tested on: TFG-MET cells; assay: γH2AX immunofluorescence after 8Gy irradiation, TFG-MET cells; type: cell-based, mouse; settings: various time points following 8Gy irradiation
# Description: Error bars display standard error of mean, statistical significance determined using t-test analysis, *;p<0.05. Scale bar is 10µm.
# [9] = Brain pharmacokinetics in CD-1 nude mice (NCA); type: in vivo, mouse; settings: for maximal concentration of unbound drug in the brain: estimated with Fu,b; for concentration reached in brain tissues: total drug
# Experimental: Fig. 2 TFG-MET-driven mouse model and pharmacokinetic profiles of MET inhibitors. a Schematic illustrating the method and utilized vectors to induce CRISPR/Cas9-mediated Trp53 deletion and TFG-MET overexpression following in utero electroporations. b H&E staining and Immunohistochemical analysis of a tumor generated by in utero electroporation, visualized by the HA-tag of TFG-MET. […] Three mice were analyzed per compound and time point. Error bars indicate the standard deviation. Dashed rectangles indicate time windows of radiation in the following preclinical allograft study
# See Methods – Pharmacokinetics section for a description of abbreviations.
# [10] = mNSCLC patients; cited from earlier work
# [11] = in vitro; settings: mouse, brain homogenate
# [12] = tested on: MET-fusion pHGG; settings: cited from earlier work
# [13] = in vitro; settings: mouse, plasma
# [14] = CD-1 nude, mouse, 25 mg/kg, Brain, NCA estimate
# [15] = CD-1 nude, mouse, Brain, NCA estimate
# [16] = CD-1 nude, mouse, Brain, NCA estimate, read-out: Kp,last
structure (smiles),measurement,setting,value
CNC(=O)c1ccc(-c2cnc3ncc(Cc4ccc5ncccc5c4)n3n2)cc1F [Capmatinib],mice with spinal metastasis after therapy was withdrawn,[1]; capmatinib + RT,one
same,tumor burden,"[1]; capmatinib + RT (0.5 Gy per day, 10 Gy total)",profoundly and stably decreased tumor burden
same,disease course under monotherapy,[1]; capmatinib alone,stable disease in all treated animals
same,inhibition in dose response assay,[2],potently inhibited
same,"BLI signal, individual mice",[3]; day 7,3.18E+07 and 1.72E+07 and 3.36E+07
same,"BLI signal, individual mice",[3]; day 9,7.47E+07 and 3.47E+07
same,"BLI signal, individual mice",[3]; day 14,5.84E+07 and 2.51E+07
same,"BLI signal, individual mice",[3]; day 17,2.44E+07 and 1.00E+07
same,"BLI signal, individual mice",[3]; day 21,1.66E+07 and 1.85E+07
same,"BLI signal, individual mice",[3]; day 24,1.50E+07 and 1.24E+07
same,"BLI signal, individual mice",[3]; day 28,1.39E+07 and 1.53E+07
same,"BLI signal, individual mice",[3]; day 31,7.80E+06 and 1.43E+07
same,"BLI signal, individual mice",[3]; day 35,9.55E+06 and 1.60E+07 and 7.43E+06
same,"BLI signal, individual mice",[3]; day 38,8.92E+06 and 1.56E+07 and 7.00E+06
same,"BLI signal, individual mice",[3]; day 42,7.91E+06 and 1.63E+07 and 5.51E+06
same,"BLI signal, individual mice",[3]; day 45,9.52E+06 and 1.30E+07 and 6.98E+06
same,"BLI signal, individual mice",[3]; day 49,7.93E+06 and 9.97E+06 and 5.88E+06
same,"BLI signal, individual mice",[3]; day 52,7.48E+06 and 8.25E+06 and 4.19E+06
same,"BLI signal, individual mice",[3]; day 56,8.25E+06 and 1.00E+07 and 5.09E+06
same,"BLI signal, individual mice",[3]; day 59,2.02E+06 and 8.98E+06 and 4.17E+06
same,"BLI signal, individual mice",[3]; day 63,5.64E+06 and 9.13E+06 and 4.23E+06
same,"BLI signal, individual mice",[3]; day 66,6.00E+06 and 8.25E+06 and 4.18E+06
same,"BLI signal, individual mice",[3]; day 70,1.53E+06 and 8.82E+06 and 4.89E+06
same,"BLI signal, individual mice",[3]; day 73,1.32E+06 and 6.23E+06 and 4.17E+06
same,"BLI signal, individual mice",[3]; day 77,4.79E+05 and 1.07E+07 and 4.65E+06
same,"BLI signal, individual mice",[3]; day 80,4.21E+05 and 1.01E+07 and 4.77E+06
same,"BLI signal, individual mice",[3]; day 87,5.96E+05 and 1.05E+07 and 4.96E+06
same,"BLI signal, individual mice",[3]; day 94,8.51E+05 and 7.79E+06
same,"BLI signal, individual mice",[3]; day 101,4.10E+05 and 7.68E+06
same,"BLI signal, individual mice",[3]; day 108,4.16E+05 and 7.10E+06
same,"BLI signal, individual mice",[3]; day 115,3.96E+05 and 8.39E+06
same,"BLI signal, individual mice",[3]; day 122,5.52E+05 and 6.96E+06
same,"BLI signal, individual mice",[3]; day 129,5.43E+05 and 7.67E+06
same,"BLI signal, individual mice",[3]; day 134,7.37E+05 and 1.29E+07
same,"BLI signal, individual mice",[3]; day 142,2.48E+05 and 8.31E+06
same,"BLI signal, individual mice",[3]; day 147,1.01E+05 and 6.09E+06
same,"BLI signal, individual mice",[3]; day 154,7.12E+04 and 6.90E+06
same,"BLI signal, individual mice",[3]; day 161,9.26E+04 and 5.65E+06
same,"BLI signal, individual mice",[3]; day 175,1.61E+05 and 5.72E+06
same,"BLI signal, individual mice",[3]; day 182,4.78E+04 and 7.21E+06
same,"BLI signal, individual mice",[3]; day 190,3.12E+05 and 5.75E+06
same,"BLI signal, individual mice",[3]; day 196,6.90E+05 and 4.81E+06
same,"BLI signal, individual mice",[3]; day 203,1.41E+06 and 5.43E+06
same,"BLI signal, individual mice",[3]; day 210,4.51E+07 and 1.12E+07
same,"BLI signal, individual mice",[3]; day 217,1.20E+07
same,"BLI signal, individual mice",[3]; day 224,3.17E+07
same,"BLI signal, individual mice",[3]; day 231,3.11E+08
same,"BLI signal, individual mice",[3]; day 238,8.31E+08
same,survival over the 19-week treatment period,"[3]; capmatinib BID, 8 mice",all mice surviving
same,mice with initial tumor regression (luciferase imaging),[3]; capmatinib monotherapy,two out of eight
same,mice with stable disease (BLI),[3]; capmatinib monotherapy,six out of eight
same,mice with tumor relapse within 6 months after treatment ceased,"[3]; capmatinib, treated 133 days",7 of 8
same,fraction unbound,[4],0.113
same,phosphorylated Kap1 in tumors vs vehicle + RT,[5],significantly greater increase
same,percentage of cells with ≥20 γH2AX-foci vs DMSO,[6],significantly higher
same,fraction unbound,[7],0.0502
same,percentage of cells with ≥10 γH2AX-foci vs DMSO,[8],significantly higher
same,Clast,"[9]; Brain, NCA estimate",42.4 ng/mL
same,Tlast,"[9]; Brain, NCA estimate",8 h
same,brain concentration at 16 hours post-dose,[9]; CD1 nude mice,below the detection limit
same,maximal concentration of unbound drug in the brain,[9]; CD1 nude mice,~ 103 nM
same,concentration reached in brain tissues,[9]; CD1 nude mice,> 1000 nM
same,AUC(0-inf),[9]; [14],1260 ng·h/mL
same,CL/F,[9]; [14],330 mL/min/kg
same,half-life,[9]; [14],2.34 h
same,k el,[9]; [14],8.22e-05 s⁻¹
same,Kp,"[9]; CD-1 nude, mouse, 25 mg/kg, Brain, NCA estimate, read-out: Kp,inf",0.0768
same,Vd/F,"[9]; CD-1 nude, mouse, 25 mg/kg, Brain, NCA estimate, read-out: Vz/F",67 L/kg
same,AUC(0-t),[9]; [15],1140 ng·h/mL
same,Cmax,[9]; [15],486 ng/mL
same,Tmax,[9]; [15],0.5 h
same,Kp,[9]; [16],0.0765
same,time after administration with higher effective exposure in the murine brain than crizotinib,"[9]; mouse, in vivo",up to 8 hours
same,discontinuation due to fatigue,[10],1.5%
same,discontinuation due to peripheral edema,[10],1.8%
same,discontinuation due to pneumonitis,[10],1.8%
same,patients permanently discontinued due to an adverse reaction,[10],16%
C[C@@H](Oc1cc(-c2cnn(C3CCNCC3)c2)cnc1N)c1c(Cl)ccc(F)c1Cl [Crizotinib],fraction unbound,[11],0.0106
same,clinical response of one pHGG patient with MET fusion,[12],partial response with rapid tumor relapse
same,fraction unbound,[13],0.0223
same,Clast,"[9]; Brain, NCA estimate",453 ng/mL
same,Tlast,"[9]; Brain, NCA estimate",16 h
same,maximal concentration of unbound drug in the brain,[9]; CD1 nude mice,~ 11 nM
same,concentration reached in brain tissues,[9]; CD1 nude mice,> 1000 nM
same,AUC(0-t),[9]; [15],6570 ng·h/mL
same,Cmax,[9]; [15],453 ng/mL
same,Tmax,[9]; [15],4 h
same,Kp,[9]; [16],0.155
